Data taken from patent publication US12358927B2, “IRAK4 inhibitor crystal and preparation method therefor” (CHIA TAI TIANQING PHARMACEUTICAL GROUP CO., LTD., priority 2020, dated 2025).
Converted amounts (≈) assume the structure as drawn. “And” between values parts separate entries of the source, which are not always exact repeats. Equal entries are not always repeated. Where two headings read alike, the source gives them in different places.

Columns and labels:
[1] = Study of approximate solubility in water; assay type: physicochemical; conditions: room temperature, dissolution determined by the naked eye
Description: About 2.0 mg of samples were weighed and added into 1.5 mL glass vials, water was gradually added using pipetting gun, and the mixture was dissolved by sonication as appropriate. The test was conducted at room temperature and the dissolution was determined by the naked eye, and the approximate solubility results are shown in Table 10.

[2] = In vivo pharmacokinetic study in SD rats; conditions: rat, plasma, SD male rats, oral, 30 mg/kg
Description: The test compound was mixed with 5% dimethyl sulfoxide/10% polyoxyethylene stearate/85% aqueous solution, and the mixture was vortexed and sonicated to prepare a 3 mg/mL clear solution for later use. SD male rats aged 7 to 10 weeks were selected and orally administered with a dose of the candidate compound at 30 mg/kg. Whole blood was collected at certain time points, and plasma was separated. The drug concentration was measured by LC-MS/MS, and pharmacokinetic parameters were calculated using Phoenix WinNonlin software (Pharsight, USA).

[3] = Equilibrium solubility experiment for biological media and pH buffers; assay type: physicochemical
Description: The taken samples were centrifuged, the supernatant of the samples was taken and diluted by a proper time after pH was determined, and the concentration of the supernatant was determined by UPLC.
Diluent: acetonitrile:water (1:1)
Mobile phase A: 0.1% aqueous FA solution
Mobile phase B: 0.1% FA ACN/MeOH (1:1) solution
Two parts of control solutions were prepared in parallel, and labeled STD #1 and STD #2, respectively.
The control solution STD #1 was taken and diluted by 1, 5, 10, 100, 1000, 2000 times, and recorded as linear solutions L1, L2, L3, L4, L5 and L6. The sample diluted by 2000 times was recorded as LOQ.

[4] = Study of polycrystalline forms (solution suspension crystallization, XRPD); assay type: physicochemical; conditions: 13 single or mixed solvents of Table 7, stirred 2 days at 50° C.
Description: Then, samples of the aforementioned suspensions were stirred for 2 days on a constant-temperature heating stirrer at 50° C. The reaction system was cooled to room temperature, filtered and concentrated to remove the solvent, to give samples, and XRPD testing was performed on the samples.

[5] = Study of solid stability (accelerated conditions, XRPD); assay type: physicochemical; conditions: 40° C./75% RH 2 and 3 months; 60° C./75% RH 1 and 2 months
Description: The samples were placed at (40° C./75% RH) for 2 months and 3 months and at (60° C./75% RH) for 1 month and 2 months, and the placed samples were characterized by XRPD. The test results were compared with the initial test results of 0 days.

[6] = Study of hygroscopicity (25° C., 80% relative humidity, 24 h); assay type: physicochemical; conditions: relative humidity 80%
Source text: Calculation: weight gain %=(m3−m2)/(m2−m1)×100%

With `COC(=O)N1CCN([C@H]2CC[C@H](Nc3nc(Nc4cnn(C5CCOCC5)c4)nc4snc(C)c34)CC2)CC1` [Compound of formula (I)] the “Approximate solubility” value [1] was under 1 mg/mL.

For `COC(=O)N1CCN([C@H]2CC[C@H](Nc3nc(Nc4cnn(C5CCOCC5)c4)nc4snc(C)c34)CC2)CC1`, the bioavailability ([2]; read-out: Bioavailability F (%)) was 62%, the AUC(0-t) ([2]; read-out: Area under plasma concentration-time curve AUC0-last) was 10.6 µM·h and the Cmax ([2]; read-out: Peak concentration Cmax) was 1580 nM. The Tmax ([2]; read-out: Time to peak Tmax) was 3 h, the solubility at 24 h ([3]; aqueous buffer, thermodynamic from solid, pH = 6.00 buffer, 37° C., 24 h, pH (24 h) 5.12, white suspension, read-out: Solubility (mg/mL) _24 hr) was 1.3 mg/mL (≈ 2.34 mM) and the solubility at 24 h ([3]; pH 1.77, simulated gastric fluid, thermodynamic from solid, SGF, 37° C., 24 h, pH (24 h) 1.77, opalescent and opaque, read-out: Solubility (mg/mL) _24 hr) was 10.5 mg/mL (≈ 18.9 mM). The solubility at 24 h ([3]; pH 2.00 and pH 3.8 buffers, 37 °C, simulated gastric fluid, thermodynamic from solid, at pH=1.00, pH=2.00, pH=3.8, water and SGF, read-out: solubility) was over 10 mg/mL, the solubility at 24 h ([3]; pH 3.8, aqueous buffer, thermodynamic from solid, pH = 3.80 buffer, 37° C., 24 h, pH (24 h) 2.61, opalescent and opaque, read-out: Solubility (mg/mL) _24 hr) was 10.2 mg/mL (≈ 18.4 mM) and the solubility at 24 h ([3]; pH 4.5, aqueous buffer, thermodynamic from solid, pH = 4.50 buffer, 37° C., 24 h, pH (24 h) 4.12, white suspension, read-out: Solubility (mg/mL) _24 hr) was 10.3 mg/mL (≈ 18.5 mM). For the same molecule, the solubility at 24 h ([3]; pH 4.75, thermodynamic from solid, FeSSIF, 37° C., 24 h, pH (24 h) 4.75, white suspension, read-out: Solubility (mg/mL) _24 hr) was 1.32 mg/mL (≈ 2.38 mM), the solubility at 24 h ([3]; pH 5.5, aqueous buffer, thermodynamic from solid, pH = 5.50 buffer, 37° C., 24 h, pH (24 h) 5.26, white suspension, read-out: Solubility (mg/mL) _24 hr) was 0.31 mg/mL (≈ 0.558 mM) and the solubility at 24 h ([3]; pH 6.04, thermodynamic from solid, FaSSIF, 37° C., 24 h, pH (24 h) 6.04, white suspension, read-out: Solubility (mg/mL) _24 hr) was 0.14 mg/mL (≈ 0.252 mM). It also gave a solubility at 24 h ([3]; pH 6.8, aqueous buffer, thermodynamic from solid, pH = 6.80 buffer, 37° C., 24 h, pH (24 h) 6.57, white suspension, read-out: Solubility (mg/mL) _24 hr) of 0.05 mg/mL (≈ 0.09 mM), a solubility at 24 h ([3]; pH 7.4, aqueous buffer, thermodynamic from solid, pH = 7.40 buffer, 37° C., 24 h, pH (24 h) 7.07, white suspension, read-out: Solubility (mg/mL) _24 hr) of 0.0012 mg/mL (≈ 0.00216 mM) and a solubility at 24 h ([3]; simulated gastric fluid, thermodynamic from solid, pH = 1.00 buffer, 37° C., 24 h, pH (24 h) 1.11, opalescent and opaque, read-out: Solubility (mg/mL) _24 hr) of 10.5 mg/mL (≈ 18.9 mM). For the same molecule, the solubility at 24 h ([3]; simulated gastric fluid, thermodynamic from solid, pH = 2.00 buffer, 37° C., 24 h, pH (24 h) 1.90, opalescent and opaque, read-out: Solubility (mg/mL) _24 hr) was 10.5 mg/mL (≈ 18.9 mM) and the solubility at 24 h ([3]; water, pH 2.29, water, thermodynamic from solid, H2O, 37° C., 24 h, pH (24 h) 2.29, opalescent and opaque, read-out: Solubility (mg/mL) _24 hr) was 9.12 mg/mL (≈ 16.4 mM).

For `COC(=O)N1CCN([C@H]2CC[C@H](Nc3nc(Nc4cnn(C5CCOCC5)c4)nc4snc(C)c34)CC2)CC1` [Crystalline form A of the compound of formula (II)], the “crystalline form after suspension stirring (XRPD)” value [4] was “all samples were the crystalline form A of the compound of formula (II)”, the “Approximate solubility” value [1] was over 100 mg/mL and the “solubility description (Chinese pharmacopoeia)” value (“solubility description” for short) ([3]; at pH=4.50) was “minimally soluble”. For the same molecule, the “solubility description” value ([3]; at pH=5.00 and FaSSIF) was “very slightly soluble”, the “solubility description” value ([3]; at pH=6.00 and FeSSIF) was “slightly soluble” and the “solubility description” value ([3]; at pH=6.80 and pH=7.40) was “almost insoluble or insoluble”. For the same molecule, the “crystal form under all stability conditions” value [5] was “unchanged”, the “Determination result (hygroscopicity)” value [6] was “Slightly hygroscopic (0.2% to 2% weight gain)” and the “Weight gain % Average value” ([6]; average of two samples) was 1.3%. For the same molecule, the Weight gain % ([6]; single samples No. 1 and 2) was 1.34% and 1.22%.
